Experimental data published in ChEMBL document CHEMBL1201862, “PubChem BioAssay data set” (2004).
The source made the active and inactive calls.

What was measured:
Hexokinase HKDC1 = molecular target: T1, Hexokinase HKDC1 (Homo sapiens, UniProt Q2TB90); assay: HKDC1 hexokinase activators, dose response, biochemical, W721R variant (AID 504730); format: functional
T1 sequence (Q2TB90 whole entry): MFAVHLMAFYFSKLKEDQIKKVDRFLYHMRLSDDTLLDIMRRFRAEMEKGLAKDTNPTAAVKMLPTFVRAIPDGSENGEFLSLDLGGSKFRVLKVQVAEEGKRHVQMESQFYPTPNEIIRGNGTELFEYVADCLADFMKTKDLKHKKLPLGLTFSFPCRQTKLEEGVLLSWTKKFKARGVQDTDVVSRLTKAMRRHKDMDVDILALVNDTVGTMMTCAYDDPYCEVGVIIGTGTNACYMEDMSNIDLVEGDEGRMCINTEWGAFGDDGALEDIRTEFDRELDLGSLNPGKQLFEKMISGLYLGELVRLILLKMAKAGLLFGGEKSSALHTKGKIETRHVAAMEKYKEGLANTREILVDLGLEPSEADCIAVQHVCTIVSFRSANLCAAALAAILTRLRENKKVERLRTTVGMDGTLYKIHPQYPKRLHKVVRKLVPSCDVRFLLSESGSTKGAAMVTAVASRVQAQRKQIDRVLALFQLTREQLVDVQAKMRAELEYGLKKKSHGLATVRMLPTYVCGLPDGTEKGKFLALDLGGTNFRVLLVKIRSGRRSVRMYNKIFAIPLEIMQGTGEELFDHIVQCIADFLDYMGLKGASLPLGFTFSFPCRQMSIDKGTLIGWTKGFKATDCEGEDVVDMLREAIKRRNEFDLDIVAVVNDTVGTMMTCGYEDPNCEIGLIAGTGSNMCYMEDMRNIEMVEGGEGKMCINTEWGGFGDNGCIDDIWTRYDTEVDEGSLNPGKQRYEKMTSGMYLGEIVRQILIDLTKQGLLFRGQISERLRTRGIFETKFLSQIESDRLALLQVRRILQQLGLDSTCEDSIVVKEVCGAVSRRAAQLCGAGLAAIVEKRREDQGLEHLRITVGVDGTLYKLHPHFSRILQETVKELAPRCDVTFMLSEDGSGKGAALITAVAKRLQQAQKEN

Streptococcus = assay: Group A Streptococcus viability loss, dose response, counter-screen for streptokinase expression inhibitor project, luminescence, BacTiterGlo (AID 1915); format: functional, organism-based;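 note: potency for reduction of bacterial viability or growth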
Mucolipin-3 = Mucolipin-3 (Homo sapiens, UniProt Q8TDD5); assay: Fluorescence counterscreen assay for […] agonists: dose response cell-based high-throughput screening assay to identify agonists of the transient receptor potential channel ML3 (TRPML3). [Related pubchem assays: 1424, 1448 ]; format: functional
Ion channel NompC = Ion channel NompC (Danio rerio, UniProt Q7T1G6); assay: Dose response cell-based high-throughput screening assay for agonists of the transient receptor potential channel N1 (TRPN1). [Related pubchem assays (depositor defined):AID1424, AID1448]; format: functional
Hexokinase-1 = molecular target: T2, Hexokinase-1 (Homo sapiens, UniProt P19367); assay: hexokinase 1 activators, dose response, selectivity assay for HKDC1 activator project, biochemical (AID 504762); format: functional
T2 sequence (P19367 whole entry): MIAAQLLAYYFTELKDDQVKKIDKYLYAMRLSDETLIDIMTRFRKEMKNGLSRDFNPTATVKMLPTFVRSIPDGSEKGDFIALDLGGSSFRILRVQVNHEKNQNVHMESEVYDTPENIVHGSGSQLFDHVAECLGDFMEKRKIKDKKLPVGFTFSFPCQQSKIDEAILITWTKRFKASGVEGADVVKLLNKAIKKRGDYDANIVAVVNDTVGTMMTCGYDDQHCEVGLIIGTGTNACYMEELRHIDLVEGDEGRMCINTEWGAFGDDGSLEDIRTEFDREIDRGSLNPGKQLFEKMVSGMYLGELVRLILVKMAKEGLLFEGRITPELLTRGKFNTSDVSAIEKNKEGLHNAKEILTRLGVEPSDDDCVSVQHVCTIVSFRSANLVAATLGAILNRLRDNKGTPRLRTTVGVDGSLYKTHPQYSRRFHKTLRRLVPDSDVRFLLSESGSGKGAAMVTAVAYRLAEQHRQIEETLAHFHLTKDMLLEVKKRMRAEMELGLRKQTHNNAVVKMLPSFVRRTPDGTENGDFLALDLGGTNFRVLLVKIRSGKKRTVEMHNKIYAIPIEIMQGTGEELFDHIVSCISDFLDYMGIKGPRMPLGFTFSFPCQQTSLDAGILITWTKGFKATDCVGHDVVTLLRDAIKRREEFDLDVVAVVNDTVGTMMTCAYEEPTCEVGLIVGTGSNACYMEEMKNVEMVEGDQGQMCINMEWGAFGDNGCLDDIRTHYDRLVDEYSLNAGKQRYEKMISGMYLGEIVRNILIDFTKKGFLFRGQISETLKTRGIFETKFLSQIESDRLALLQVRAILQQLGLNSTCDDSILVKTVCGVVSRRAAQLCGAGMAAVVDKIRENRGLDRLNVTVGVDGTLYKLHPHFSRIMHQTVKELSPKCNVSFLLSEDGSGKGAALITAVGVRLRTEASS

[1] = tested on: Streptococcus sp. 'group A'; assay: growth inhibition of control SK(-) GAS strain, dose response, counter-screen for streptokinase expression inhibitor project, luminescence, kanamycin, BacTiterGlo, confirmation (AID 1900); format: functional, organism-based
[2] = molecular target: T3, Short transient receptor potential channel 4 (Mus musculus, UniProt Q9QUQ5); assay: mouse TRPC4 channel activators, dose response, cell-based, HEK293 TRPC4/mu-opioid, Fluo-4 calcium (AID 434937); format: functional
T3 sequence (Q9QUQ5 whole entry): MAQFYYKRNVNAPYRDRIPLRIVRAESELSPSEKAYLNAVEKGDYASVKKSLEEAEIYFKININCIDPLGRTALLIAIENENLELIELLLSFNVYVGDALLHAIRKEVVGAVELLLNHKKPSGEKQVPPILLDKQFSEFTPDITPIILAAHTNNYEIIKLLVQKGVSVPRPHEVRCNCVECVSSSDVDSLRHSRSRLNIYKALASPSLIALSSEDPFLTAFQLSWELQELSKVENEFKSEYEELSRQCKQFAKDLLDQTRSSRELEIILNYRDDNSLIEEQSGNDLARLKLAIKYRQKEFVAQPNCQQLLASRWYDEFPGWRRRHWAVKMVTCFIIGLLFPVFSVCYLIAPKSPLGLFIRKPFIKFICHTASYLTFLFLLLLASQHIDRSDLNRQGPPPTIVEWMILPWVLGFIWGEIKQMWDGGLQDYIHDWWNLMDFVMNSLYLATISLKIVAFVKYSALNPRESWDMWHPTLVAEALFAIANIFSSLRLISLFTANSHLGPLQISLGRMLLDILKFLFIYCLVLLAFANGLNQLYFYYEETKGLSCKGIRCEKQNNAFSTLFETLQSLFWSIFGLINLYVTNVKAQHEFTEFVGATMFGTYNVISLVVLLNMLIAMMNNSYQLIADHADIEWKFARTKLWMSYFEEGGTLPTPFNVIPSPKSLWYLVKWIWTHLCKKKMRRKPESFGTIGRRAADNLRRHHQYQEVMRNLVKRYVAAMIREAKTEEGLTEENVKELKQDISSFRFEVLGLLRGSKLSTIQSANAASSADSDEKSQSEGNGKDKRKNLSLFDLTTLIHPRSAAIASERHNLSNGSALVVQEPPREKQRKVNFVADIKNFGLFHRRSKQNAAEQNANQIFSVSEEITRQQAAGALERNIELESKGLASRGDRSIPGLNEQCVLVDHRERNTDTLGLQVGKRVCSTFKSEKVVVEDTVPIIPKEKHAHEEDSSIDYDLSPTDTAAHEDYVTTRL

[3] = molecular target: T4, Kappa-type opioid receptor (Homo sapiens, UniProt P41145); format: functional
[4] = molecular target: T5, Delta-type opioid receptor (Homo sapiens, UniProt P41143); assay: HTS Image-Based Screen for Antagonists of the DOR Receptor. [Related pubchem assays (depositor defined):AID1777, AID1785, AID1786, AID2133]; format: functional
[5] = molecular target: T4, Kappa-type opioid receptor; format: functional; remark: listed apart in the source
Mu-type opioid receptor = Mu-type opioid receptor (Homo sapiens, UniProt P35372); assay: HTS Image-Based Screen for Agonists of the MOR Receptor. [Related pubchem assays (depositor defined):AID1777, AID1785, AID1786, AID2133]; format: functional;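 note: imaging of beta-arrestin GFP recruitment into spots after receptor activation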
[6] = molecular target: T6, Corticotropin-releasing factor receptor 2/Corticotropin-releasing factor-binding protein (Homo sapiens, UniProt P24387+Q13324); assay: activators of CRF receptor 2 with binding protein – uHTS hits, confirmation (AID 602473); format: functional; details: read-out: EC50_Mean
T6 sequence (Q13324 whole entry): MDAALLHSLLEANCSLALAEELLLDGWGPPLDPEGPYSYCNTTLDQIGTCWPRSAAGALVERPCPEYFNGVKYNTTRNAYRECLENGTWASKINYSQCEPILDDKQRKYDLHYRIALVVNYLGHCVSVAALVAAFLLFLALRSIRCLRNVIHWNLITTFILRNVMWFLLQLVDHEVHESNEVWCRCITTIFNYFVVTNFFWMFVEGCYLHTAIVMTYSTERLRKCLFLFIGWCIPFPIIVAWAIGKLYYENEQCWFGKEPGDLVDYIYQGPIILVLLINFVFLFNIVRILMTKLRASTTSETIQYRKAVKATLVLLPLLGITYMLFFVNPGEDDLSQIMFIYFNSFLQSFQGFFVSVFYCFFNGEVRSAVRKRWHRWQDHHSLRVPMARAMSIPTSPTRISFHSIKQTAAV
T6 sequence (P24387 whole entry): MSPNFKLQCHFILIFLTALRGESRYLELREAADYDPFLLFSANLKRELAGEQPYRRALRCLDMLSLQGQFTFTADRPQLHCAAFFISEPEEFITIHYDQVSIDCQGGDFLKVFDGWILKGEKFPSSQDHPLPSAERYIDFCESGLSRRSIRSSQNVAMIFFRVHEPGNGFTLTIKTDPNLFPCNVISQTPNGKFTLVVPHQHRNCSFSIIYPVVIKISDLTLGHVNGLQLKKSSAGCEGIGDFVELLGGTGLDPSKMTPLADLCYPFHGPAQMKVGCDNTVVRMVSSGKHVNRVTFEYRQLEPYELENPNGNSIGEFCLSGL

[7] = molecular target: T5, Delta-type opioid receptor; assay: HTS Image-Based Screen for Agonists of the DOR Receptor. [Related pubchem assays (depositor defined):AID1777, AID1786, AID2133]; format: functional
[8] = molecular target: T7, Peroxisome proliferator-activated receptor gamma (Homo sapiens, UniProt P37231); assay: PPARg partial agonists, dose response, cell-based, luminescence, assay provider (AID 504447); format: functional
T7 sequence (P37231 whole entry): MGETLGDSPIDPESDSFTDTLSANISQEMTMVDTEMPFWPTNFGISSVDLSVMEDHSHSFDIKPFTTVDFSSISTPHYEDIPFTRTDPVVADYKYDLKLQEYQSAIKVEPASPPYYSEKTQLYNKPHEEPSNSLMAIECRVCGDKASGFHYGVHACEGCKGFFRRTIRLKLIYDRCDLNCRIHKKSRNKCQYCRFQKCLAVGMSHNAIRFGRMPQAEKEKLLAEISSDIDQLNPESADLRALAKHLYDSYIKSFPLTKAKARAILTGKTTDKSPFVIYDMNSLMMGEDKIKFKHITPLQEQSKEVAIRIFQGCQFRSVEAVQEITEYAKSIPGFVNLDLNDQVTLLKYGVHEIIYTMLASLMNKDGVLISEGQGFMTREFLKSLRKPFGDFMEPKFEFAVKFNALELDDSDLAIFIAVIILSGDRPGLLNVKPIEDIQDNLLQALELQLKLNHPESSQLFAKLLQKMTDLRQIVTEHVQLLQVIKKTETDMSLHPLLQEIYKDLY
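Throughout, for IC50: U2OS cells expressing DOR stimulated with 100 nM SNC80 agonist.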

T5 sequence (P41143 whole entry): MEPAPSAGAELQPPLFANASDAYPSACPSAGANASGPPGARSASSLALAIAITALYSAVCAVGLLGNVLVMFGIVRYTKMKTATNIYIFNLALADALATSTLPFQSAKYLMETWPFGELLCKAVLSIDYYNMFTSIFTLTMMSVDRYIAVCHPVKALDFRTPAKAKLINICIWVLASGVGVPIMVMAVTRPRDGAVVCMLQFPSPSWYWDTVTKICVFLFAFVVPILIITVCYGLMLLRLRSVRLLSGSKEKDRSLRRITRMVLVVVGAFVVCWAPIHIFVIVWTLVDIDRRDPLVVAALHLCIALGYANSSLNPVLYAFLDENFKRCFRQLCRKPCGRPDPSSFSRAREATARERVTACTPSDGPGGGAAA
T4 sequence (P41145 whole entry): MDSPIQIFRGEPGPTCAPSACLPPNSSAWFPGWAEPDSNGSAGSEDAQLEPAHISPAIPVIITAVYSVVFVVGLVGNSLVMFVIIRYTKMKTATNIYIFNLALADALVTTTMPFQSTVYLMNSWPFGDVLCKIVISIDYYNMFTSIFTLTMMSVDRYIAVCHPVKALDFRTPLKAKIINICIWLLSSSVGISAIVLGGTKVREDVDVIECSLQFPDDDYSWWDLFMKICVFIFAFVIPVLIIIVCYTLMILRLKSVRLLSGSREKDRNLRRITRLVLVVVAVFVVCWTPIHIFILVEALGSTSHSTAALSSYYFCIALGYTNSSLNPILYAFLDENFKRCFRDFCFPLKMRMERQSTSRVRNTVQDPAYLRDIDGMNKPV
Sequence of Ion channel NompC (Q7T1G6 whole entry): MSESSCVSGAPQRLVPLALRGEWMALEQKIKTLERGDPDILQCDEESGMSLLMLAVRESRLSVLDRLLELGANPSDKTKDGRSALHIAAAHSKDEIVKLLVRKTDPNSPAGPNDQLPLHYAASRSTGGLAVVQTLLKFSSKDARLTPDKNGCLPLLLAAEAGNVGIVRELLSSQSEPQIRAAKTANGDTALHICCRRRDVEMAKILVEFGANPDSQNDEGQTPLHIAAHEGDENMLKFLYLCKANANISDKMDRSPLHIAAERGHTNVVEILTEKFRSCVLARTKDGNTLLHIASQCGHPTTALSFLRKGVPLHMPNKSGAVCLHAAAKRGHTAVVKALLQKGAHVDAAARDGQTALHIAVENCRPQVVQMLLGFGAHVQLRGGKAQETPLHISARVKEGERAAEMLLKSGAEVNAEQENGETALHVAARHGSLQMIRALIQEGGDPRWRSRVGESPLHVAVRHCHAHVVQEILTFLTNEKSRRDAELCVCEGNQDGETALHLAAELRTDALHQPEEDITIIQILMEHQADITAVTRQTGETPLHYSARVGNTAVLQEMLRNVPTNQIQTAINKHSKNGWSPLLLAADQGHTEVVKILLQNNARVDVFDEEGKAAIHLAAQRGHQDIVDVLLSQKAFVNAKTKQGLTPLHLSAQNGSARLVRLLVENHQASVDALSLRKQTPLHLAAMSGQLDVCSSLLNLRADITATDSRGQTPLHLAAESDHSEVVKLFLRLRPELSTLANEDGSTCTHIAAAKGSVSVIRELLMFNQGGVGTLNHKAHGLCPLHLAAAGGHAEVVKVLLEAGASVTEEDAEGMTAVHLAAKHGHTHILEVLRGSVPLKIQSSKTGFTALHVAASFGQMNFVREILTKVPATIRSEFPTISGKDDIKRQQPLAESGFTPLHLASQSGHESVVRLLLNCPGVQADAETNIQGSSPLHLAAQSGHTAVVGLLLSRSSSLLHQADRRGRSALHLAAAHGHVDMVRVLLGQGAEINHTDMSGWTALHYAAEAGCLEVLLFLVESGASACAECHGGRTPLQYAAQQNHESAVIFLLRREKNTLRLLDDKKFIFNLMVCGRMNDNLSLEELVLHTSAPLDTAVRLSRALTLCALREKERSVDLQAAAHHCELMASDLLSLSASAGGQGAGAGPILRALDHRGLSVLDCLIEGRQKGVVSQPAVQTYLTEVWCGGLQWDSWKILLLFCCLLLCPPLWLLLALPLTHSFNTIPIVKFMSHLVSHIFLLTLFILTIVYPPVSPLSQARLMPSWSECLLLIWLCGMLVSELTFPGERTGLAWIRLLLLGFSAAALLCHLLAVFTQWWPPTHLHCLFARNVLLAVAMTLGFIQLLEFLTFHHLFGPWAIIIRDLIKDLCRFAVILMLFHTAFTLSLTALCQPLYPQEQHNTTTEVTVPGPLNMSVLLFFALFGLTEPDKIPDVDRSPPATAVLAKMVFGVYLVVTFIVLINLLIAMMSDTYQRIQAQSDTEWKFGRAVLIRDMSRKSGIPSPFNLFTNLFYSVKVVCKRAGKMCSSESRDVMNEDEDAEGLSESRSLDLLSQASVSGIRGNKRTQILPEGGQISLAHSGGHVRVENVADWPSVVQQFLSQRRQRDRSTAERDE
Sequence of Mu-type opioid receptor (P35372 whole entry): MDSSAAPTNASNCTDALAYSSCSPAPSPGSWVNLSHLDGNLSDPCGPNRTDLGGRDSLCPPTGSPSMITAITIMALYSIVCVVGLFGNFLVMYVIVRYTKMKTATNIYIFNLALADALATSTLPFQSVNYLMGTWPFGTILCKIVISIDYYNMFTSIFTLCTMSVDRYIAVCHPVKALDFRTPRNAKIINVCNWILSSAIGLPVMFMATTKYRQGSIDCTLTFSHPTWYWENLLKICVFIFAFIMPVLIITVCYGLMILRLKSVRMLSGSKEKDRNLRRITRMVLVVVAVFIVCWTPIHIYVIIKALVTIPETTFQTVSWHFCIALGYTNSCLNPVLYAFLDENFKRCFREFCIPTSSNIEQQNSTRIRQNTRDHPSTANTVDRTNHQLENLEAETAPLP
Sequence of Mucolipin-3 (Q8TDD5 whole entry): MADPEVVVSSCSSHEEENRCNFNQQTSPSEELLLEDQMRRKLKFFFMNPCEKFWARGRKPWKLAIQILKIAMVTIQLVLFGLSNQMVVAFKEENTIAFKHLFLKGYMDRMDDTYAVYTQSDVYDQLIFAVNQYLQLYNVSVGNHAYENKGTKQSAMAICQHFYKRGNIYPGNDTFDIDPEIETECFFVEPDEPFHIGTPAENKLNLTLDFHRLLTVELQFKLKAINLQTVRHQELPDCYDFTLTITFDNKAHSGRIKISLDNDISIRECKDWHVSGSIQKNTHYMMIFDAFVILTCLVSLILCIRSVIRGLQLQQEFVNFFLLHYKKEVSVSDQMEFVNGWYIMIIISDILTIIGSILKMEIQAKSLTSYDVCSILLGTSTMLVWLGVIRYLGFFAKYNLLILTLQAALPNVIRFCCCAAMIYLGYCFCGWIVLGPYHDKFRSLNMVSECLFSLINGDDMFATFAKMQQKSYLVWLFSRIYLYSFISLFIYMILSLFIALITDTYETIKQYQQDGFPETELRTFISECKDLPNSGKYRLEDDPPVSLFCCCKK

Cc1onc(-c2ccccc2)c1C(=O)NNC(=S)NC(=O)c1ccc(Br)cc1
EC50 (Hexokinase HKDC1): 6.58 µM (active) | EC50 (Streptococcus): 1.52 µM (active) | EC50 (Mucolipin-3): 1.03 µM (active) | EC50 (Ion channel NompC): 0.604 µM (active) | EC50 (Hexokinase-1): > 80 µM (inactive) | EC50 [1]: 0.472 µM (active) | EC50 [2]: 1.88 µM (active)

O=C(c1ccc([N+](=O)[O-])cc1)N(Cc1ccc(Cl)cc1)N1C(=O)CCCC1=O
EC50 [3]: 5.66 µM | IC50 [4]: > 32 µM (inactive) | EC50 [5]: > 35 µM | EC50 (Mu-type opioid receptor): > 32 µM (inactive) | EC50 [6]: 0.709 µM (active) | EC50 [7]: > 32 µM (inactive)

COc1ccc2c(c1)c(=O)c(C(=O)c1ccc(F)cc1)cn2CC(=O)Nc1ccc(F)cc1
EC50 [8]: 1.8 µM (active)
